For 39 molecules, IC50 results are on record in patent US10544143B2, “4-azaindole compounds” (BRISTOL-MYERS SQUIBB COMPANY, priority 2017, dated 2020).

pIC50: −log10 of the molar value.

The target in one experiment is human TLR8 (Homo sapiens (Human), UniProt Q9NR97). As to the kind of experiment: TLR8 inhibition reporter assay (HEK-Blue SEAP).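 Note: SEAP driven by IFN-β minimal promoter carrying NF-κB and AP-1 sites, compounds dosed 0.05 nM to 50 µM for 22 h, inhibition scaled between agonist-plus-DMSO and reference-inhibitor wells.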 The following applies: read-out: TLR8 IC50; HEK-Blue human TLR8 cells, R848 15.9 μM.
human TLR8, sequence (Q9NR97 27-1041): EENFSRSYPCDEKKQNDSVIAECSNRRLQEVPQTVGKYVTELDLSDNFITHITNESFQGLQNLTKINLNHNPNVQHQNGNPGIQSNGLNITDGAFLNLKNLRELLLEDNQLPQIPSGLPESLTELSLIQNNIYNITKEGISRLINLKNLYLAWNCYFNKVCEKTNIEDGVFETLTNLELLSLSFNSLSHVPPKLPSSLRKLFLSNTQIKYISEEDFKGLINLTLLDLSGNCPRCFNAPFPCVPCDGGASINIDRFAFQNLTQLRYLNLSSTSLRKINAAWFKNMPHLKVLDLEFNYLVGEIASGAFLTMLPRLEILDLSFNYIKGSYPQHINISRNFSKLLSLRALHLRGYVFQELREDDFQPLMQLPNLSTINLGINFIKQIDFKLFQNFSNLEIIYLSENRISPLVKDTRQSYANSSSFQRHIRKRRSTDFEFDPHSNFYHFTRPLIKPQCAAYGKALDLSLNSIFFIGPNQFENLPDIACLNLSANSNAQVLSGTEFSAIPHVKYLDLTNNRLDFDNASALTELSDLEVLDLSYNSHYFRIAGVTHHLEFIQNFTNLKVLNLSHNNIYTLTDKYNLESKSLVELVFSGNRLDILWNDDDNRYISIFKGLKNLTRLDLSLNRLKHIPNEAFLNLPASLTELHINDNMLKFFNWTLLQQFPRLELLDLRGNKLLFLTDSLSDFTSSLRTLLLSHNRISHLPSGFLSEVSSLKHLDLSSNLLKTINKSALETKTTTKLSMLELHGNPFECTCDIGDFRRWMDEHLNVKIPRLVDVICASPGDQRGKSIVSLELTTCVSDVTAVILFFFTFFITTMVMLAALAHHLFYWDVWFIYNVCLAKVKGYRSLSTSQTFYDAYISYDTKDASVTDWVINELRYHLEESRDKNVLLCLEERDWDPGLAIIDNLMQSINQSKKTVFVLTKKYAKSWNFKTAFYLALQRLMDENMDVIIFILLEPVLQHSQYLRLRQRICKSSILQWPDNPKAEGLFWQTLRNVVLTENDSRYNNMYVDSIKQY
The next experiment addresses human TLR7 (Homo sapiens (Human), UniProt Q9NYK1). As to the kind of experiment: TLR7 inhibition reporter assay (HEK-Blue SEAP). In kind it is cell-based. The following applies: HEK-Blue human TLR7 cells, gardiquimod 7.5 μM. On the technique in general: A reporter such as luciferase makes a cellular process visible.
In the next experiment the target is human TLR9 (Homo sapiens (Human), UniProt Q9NR96). As to the kind of experiment: TLR9 inhibition reporter assay (HEK-Blue SEAP).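 Note: SEAP driven by an IFN-β minimal promoter with NF-κB and AP-1 sites, read after 22 h, compounds dosed 0.05 nM–50 µM, inhibition scaled between agonist plus DMSO and reference-inhibitor wells.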 The following applies: read-out: TLR9 IC50; HEK-Blue human TLR9 cells, ODN2006 5 nM.
human TLR9, sequence (Q9NR96 26-1032): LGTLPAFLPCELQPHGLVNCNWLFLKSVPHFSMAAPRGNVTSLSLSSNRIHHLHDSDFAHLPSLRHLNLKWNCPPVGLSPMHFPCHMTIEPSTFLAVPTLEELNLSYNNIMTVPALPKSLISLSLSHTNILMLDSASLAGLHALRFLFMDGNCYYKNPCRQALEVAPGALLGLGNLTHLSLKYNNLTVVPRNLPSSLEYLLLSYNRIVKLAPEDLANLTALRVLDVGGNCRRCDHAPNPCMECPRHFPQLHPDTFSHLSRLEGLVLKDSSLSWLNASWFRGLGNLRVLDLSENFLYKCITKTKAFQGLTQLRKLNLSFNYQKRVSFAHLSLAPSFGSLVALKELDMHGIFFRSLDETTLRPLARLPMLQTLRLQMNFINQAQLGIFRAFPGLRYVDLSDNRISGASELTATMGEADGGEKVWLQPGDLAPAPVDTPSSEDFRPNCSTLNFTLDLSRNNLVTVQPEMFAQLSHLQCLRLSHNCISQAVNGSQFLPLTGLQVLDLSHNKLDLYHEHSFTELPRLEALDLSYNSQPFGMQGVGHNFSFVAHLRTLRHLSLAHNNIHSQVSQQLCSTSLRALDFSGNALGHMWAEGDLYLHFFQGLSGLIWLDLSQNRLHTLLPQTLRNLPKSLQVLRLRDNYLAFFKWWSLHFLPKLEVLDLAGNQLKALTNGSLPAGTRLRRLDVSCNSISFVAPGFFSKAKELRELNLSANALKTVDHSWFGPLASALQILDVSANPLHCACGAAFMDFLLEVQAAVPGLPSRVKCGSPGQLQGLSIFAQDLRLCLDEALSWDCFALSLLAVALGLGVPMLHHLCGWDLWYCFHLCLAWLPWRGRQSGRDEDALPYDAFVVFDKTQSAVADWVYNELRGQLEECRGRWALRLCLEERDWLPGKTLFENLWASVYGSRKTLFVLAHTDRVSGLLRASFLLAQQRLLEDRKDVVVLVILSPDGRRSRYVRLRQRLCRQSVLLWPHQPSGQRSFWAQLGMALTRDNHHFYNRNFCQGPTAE

human TLR7, sequence (Q9NYK1 27-1049): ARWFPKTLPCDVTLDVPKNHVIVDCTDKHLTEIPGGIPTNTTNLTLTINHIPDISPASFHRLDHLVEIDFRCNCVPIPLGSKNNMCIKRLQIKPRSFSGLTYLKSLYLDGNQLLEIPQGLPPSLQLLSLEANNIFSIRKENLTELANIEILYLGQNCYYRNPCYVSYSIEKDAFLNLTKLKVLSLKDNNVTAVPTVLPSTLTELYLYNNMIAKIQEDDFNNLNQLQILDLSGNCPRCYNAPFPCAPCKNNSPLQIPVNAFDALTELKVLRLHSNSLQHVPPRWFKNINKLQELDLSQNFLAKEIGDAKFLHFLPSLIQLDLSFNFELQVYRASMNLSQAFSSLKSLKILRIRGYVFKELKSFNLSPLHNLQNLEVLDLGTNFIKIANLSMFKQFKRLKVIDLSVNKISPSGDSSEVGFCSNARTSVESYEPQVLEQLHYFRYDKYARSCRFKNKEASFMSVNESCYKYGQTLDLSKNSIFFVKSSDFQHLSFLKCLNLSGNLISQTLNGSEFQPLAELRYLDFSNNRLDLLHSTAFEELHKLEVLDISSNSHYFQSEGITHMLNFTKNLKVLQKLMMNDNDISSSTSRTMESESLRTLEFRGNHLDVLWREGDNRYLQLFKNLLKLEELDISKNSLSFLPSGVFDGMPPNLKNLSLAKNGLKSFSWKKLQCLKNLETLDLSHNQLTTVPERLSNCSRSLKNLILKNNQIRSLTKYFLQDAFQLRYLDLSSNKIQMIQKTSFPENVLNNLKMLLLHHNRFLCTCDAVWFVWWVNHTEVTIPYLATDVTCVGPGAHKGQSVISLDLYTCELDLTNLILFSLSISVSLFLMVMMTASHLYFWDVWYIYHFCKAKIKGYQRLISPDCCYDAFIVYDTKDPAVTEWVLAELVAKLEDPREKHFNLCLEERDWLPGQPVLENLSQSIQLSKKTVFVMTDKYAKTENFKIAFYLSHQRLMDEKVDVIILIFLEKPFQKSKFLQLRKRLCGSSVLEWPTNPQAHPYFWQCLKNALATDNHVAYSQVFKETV

Usually pIC50 stands for −log10 of the IC50, conventionally taken in molar units. With `Cc1c(-c2[nH]c3ccc(N4CCN(C(=O)CN(C)C(C)(C)C)C[C@@H]4C)nc3c2C(C)C)cn2ncnc2c1C` [Example 905], the negative logarithm of the IC50 (pIC50) at human TLR8 is 9.09; against human TLR7, 9.29; at human TLR9, 4.92.
`CCN(C)CCC(=O)N1C[C@H](C)N(c2ccc3[nH]c(-c4cn5ncnc5c(C)c4C)c(C(C)C)c3n2)C[C@H]1C` [Example 906]: the results for the negative logarithm of the IC50 (pIC50) at human TLR8, at human TLR7 and on human TLR9 were 9.17, 9.41 and 5.11, respectively.
For the molecule `Cc1c(-c2[nH]c3ccc(N4C[C@@H](C)N(C(=O)CCN5CCOCC5)C[C@@H]4C)nc3c2C(C)C)cn2ncnc2c1C` [Example 907], the pIC50 on human TLR8 is 9.35; on human TLR7, 9.12; at human TLR9, under 4.30.
For `Cc1c(-c2[nH]c3ccc(N4C[C@@H](C)N(C(=O)CCN5CC6(COC6)C5)C[C@@H]4C)nc3c2C(C)C)cn2ncnc2c1C` [Example 908], the pIC50 was 9.59 on human TLR8, 9.05 against human TLR7 and 5.19 on human TLR9.
`Cc1c(-c2[nH]c3ccc(N4C[C@@H](C)N(C(=O)CCN5CCC(F)C5)C[C@@H]4C)nc3c2C(C)C)cn2ncnc2c1C` (stereo partly drawn) [Example 909]: the pIC50 at human TLR8 is 9.04; against human TLR7 it was 9.27; on human TLR9, 5.17.
For the molecule `Cc1c(-c2[nH]c3ccc(N4C[C@@H](C)N(C(=O)CN(C(C)C)C(C)C)C[C@@H]4C)nc3c2C(C)C)cn2ncnc2c1C` [Example 910], the negative logarithm of the IC50 (pIC50) is 9.07 at human TLR8, 9.17 against human TLR7 and 5.27 at human TLR9.
As for `Cc1c(-c2[nH]c3ccc(N4C[C@@H](C)N(C(=O)CN(C)C(C)(C)C)C[C@@H]4C)nc3c2C(C)C)cn2ncnc2c1C` [Example 911], the negative logarithm of the IC50 (pIC50) at human TLR8 was 8.82; against human TLR7, 9.17; on human TLR9, 5.15.
As to `CCN(CC(=O)N1C[C@H](C)N(c2ccc3[nH]c(-c4cn5ncnc5c(C)c4C)c(C(C)C)c3n2)C[C@H]1C)C(C)C` [Example 912], the values for the negative logarithm of the IC50 (pIC50) on human TLR8, against human TLR7 and at human TLR9 were 8.66, 9.01 and 5.03, respectively.
Take `Cc1c(-c2[nH]c3ccc(N4[C@@H]5CC[C@H]4CN(C(=O)CCN(C)C)C5)nc3c2C(C)C)cn2ncnc2c1C` [Example 913]: the negative-log IC50 (pIC50) at human TLR8 is 8.74; on human TLR7, 9.00; on human TLR9, 5.05.
For `Cc1c(-c2[nH]c3ccc(N4C[C@@H](C)N(C(=O)CCN(C)C(C)(C)C)C[C@@H]4C)nc3c2C(C)C)cn2ncnc2c1C` [Example 914], in that order: 9.03, 9.14 and 5.22.
As to `Cc1c(-c2[nH]c3ccc(N4CCN(C(=O)CN5CC(C)(C)C5)CC4)nc3c2C(C)C)cn2ncnc2c1C` [Example 915], the pIC50 is 9.00 on human TLR8, 8.64 against human TLR7 and 4.95 on human TLR9.
`COC1CN(CC(=O)N2CCN(c3ccc4[nH]c(-c5cn6ncnc6c(C)c5C)c(C(C)C)c4n3)CC2)C1` [Example 916]: the pIC50 is 7.96 on human TLR8, […] against human TLR7 and 4.84 at human TLR9.
Take `Cc1c(-c2[nH]c3ccc(N4CCN(C(=O)CN5CCC(F)(F)C5)CC4)nc3c2C(C)C)cn2ncnc2c1C` [Example 919]: the pIC50 at human TLR8 was 9.00; at human TLR7 it was 7.64; at human TLR9, 4.86.
Turning to `Cc1c(-c2[nH]c3ccc(N4[C@@H]5CC[C@H]4CN(C(=O)CN4CC6(COC6)C4)C5)nc3c2C(C)C)cn2ncnc2c1C` [Example 920], the pIC50 at human TLR8 was 8.23; at human TLR7, 8.59; on human TLR9, 4.92.
As for `Cc1c(-c2[nH]c3ccc(N4[C@@H]5CC[C@H]4CN(C(=O)CN4CCCC4)C5)nc3c2C(C)C)cn2ncnc2c1C` [Example 921], the pIC50 on human TLR8 is 8.47; against human TLR7 it was 9.21; on human TLR9, 5.28.
The corresponding values for `CCN(C)CC(=O)N1C[C@H]2CC[C@@H](C1)N2c1ccc2[nH]c(-c3cn4ncnc4c(C)c3C)c(C(C)C)c2n1` [Example 922] are 8.68, 9.26 and 5.03.
In the case of `Cc1c(-c2[nH]c3ccc(N4[C@@H]5CC[C@H]4CN(C(=O)CN(C)C(C)C)C5)nc3c2C(C)C)cn2ncnc2c1C` [Example 923], the negative-log IC50 (pIC50) was 8.44 on human TLR8, 8.92 on human TLR7 and 5.18 at human TLR9.
Take `Cc1c(-c2[nH]c3ccc(N4[C@@H]5CC[C@H]4CN(C(=O)CN(C)C(C)(C)C)C5)nc3c2C(C)C)cn2ncnc2c1C` [Example 924]: the results for the pIC50 at human TLR8, on human TLR7 and at human TLR9 were 8.31, 8.77 and 5.14, respectively.
Turning to `Cc1c(-c2[nH]c3ccc(N4[C@@H]5CC[C@H]4CN(C(=O)CN(CCO)C(C)(C)C)C5)nc3c2C(C)C)cn2ncnc2c1C` [Example 925], the values for the negative logarithm of the IC50 (pIC50) on human TLR8, against human TLR7 and at human TLR9 were 8.04, 9.10 and 5.00, respectively.
On to `Cc1c(-c2[nH]c3ccc(N4C[C@@H](C)N(C(=O)CN(C)C(C)(C)C)[C@H](C)C4)nc3c2C(C)C)cn2ncnc2c1C` [Example 926], for which the negative logarithm of the IC50 (pIC50) on human TLR8 was 8.52; against human TLR7, 8.48; on human TLR9 it was 5.52.
Turning to `CCN(C)CC(=O)N1[C@H](C)CN(c2ccc3[nH]c(-c4cn5ncnc5c(C)c4C)c(C(C)C)c3n2)C[C@H]1C` [Example 927], the negative-log IC50 (pIC50) was 8.43 at human TLR8, 8.54 against human TLR7 and 5.36 on human TLR9.
Consider `Cc1c(-c2[nH]c3ccc(N4C[C@@H](C)N(C(=O)CN5CCCC5)[C@H](C)C4)nc3c2C(C)C)cn2ncnc2c1C` [Example 928], for which the negative-log IC50 (pIC50) is 8.16 on human TLR8, 8.82 against human TLR7 and 5.44 on human TLR9.
Consider `Cc1c(-c2[nH]c3ccc(N4C[C@@H](C)N(C(=O)CN5CC6(COC6)C5)[C@H](C)C4)nc3c2C(C)C)cn2ncnc2c1C` [Example 929], for which the pIC50 at human TLR8 is 8.41; against human TLR7, 8.59; at human TLR9 it was 5.29.
For `Cc1c(-c2[nH]c3ccc(N4C[C@@H](C)N(C(=O)CN(CCO)C(C)(C)C)[C@H](C)C4)nc3c2C(C)C)cn2ncnc2c1C` [Example 930], in that order: 8.13, 7.66 and 4.61.
Take `Cc1c(-c2[nH]c3ccc(N4CCN(C(=O)CN5CC6(COC6)C5)C[C@H]4C)nc3c2C(C)C)cn2ncnc2c1C` [Example 931]: the negative logarithm of the IC50 (pIC50) at human TLR8 was 8.41; at human TLR7, 8.60; at human TLR9, 4.83.
For the molecule `CCN(C)CC(=O)N1CCN(c2ccc3[nH]c(-c4cn5ncnc5c(C)c4C)c(C(C)C)c3n2)[C@@H](C)C1` [Example 932], the negative-log IC50 (pIC50) on human TLR8 was 8.00; against human TLR7, 9.18; at human TLR9, 4.84.
Turning to `Cc1c(-c2[nH]c3ccc(N4CCN(C(=O)CN(C)C(C)C)C[C@H]4C)nc3c2C(C)C)cn2ncnc2c1C` [Example 933], the negative logarithm of the IC50 (pIC50) at human TLR8 is 7.74; against human TLR7, 9.20; at human TLR9, 4.73.
For `Cc1c(-c2[nH]c3ccc(N4CCN(C(=O)CN(C)C(C)(C)C)C[C@H]4C)nc3c2C(C)C)cn2ncnc2c1C` [Example 934], in that order: 8.07, 9.07 and 5.01.
For `Cc1c(-c2[nH]c3ccc(N4C[C@H](C)N(C(=O)CN5CC6(COC6)C5)C[C@H]4C)nc3c2C(C)C)cn2ncnc2c1C` [Example 935], in that order: 8.54, 9.32 and 5.25.
On to `Cc1c(-c2[nH]c3ccc(N4C[C@H](C)N(C(=O)CN5CCCC5)C[C@H]4C)nc3c2C(C)C)cn2ncnc2c1C` [Example 936], for which the pIC50 at human TLR8 was 8.46; at human TLR7, 9.25; at human TLR9, 5.33.
For `CCN(C)CC(=O)N1C[C@@H](C)N(c2ccc3[nH]c(-c4cn5ncnc5c(C)c4C)c(C(C)C)c3n2)C[C@@H]1C` [Example 937], the pIC50 was 7.85 on human TLR8, 9.28 at human TLR7 and 4.85 at human TLR9.
Regarding `Cc1c(-c2[nH]c3ccc(N4C[C@H](C)N(C(=O)CN(C)C(C)C)C[C@H]4C)nc3c2C(C)C)cn2ncnc2c1C` [Example 938], the results for the pIC50 on human TLR8, against human TLR7 and at human TLR9 were 8.31, 8.59 and 5.07, respectively.
In the case of `Cc1c(-c2[nH]c3ccc(N4C[C@H](C)N(C(=O)CN(C)C(C)(C)C)C[C@H]4C)nc3c2C(C)C)cn2ncnc2c1C` [Example 939], the negative logarithm of the IC50 (pIC50) at human TLR8 is 8.01; at human TLR7, 8.82; at human TLR9, 4.93.
`Cc1c(-c2[nH]c3ccc(N4CCN(C(=O)CN5CC6(COC6)C5)[C@H](C)C4)nc3c2C(C)C)cn2ncnc2c1C` [Example 940]: the negative logarithm of the IC50 (pIC50) on human TLR8 was 9.18; on human TLR7 it was 8.77; on human TLR9, 5.08.
Consider `Cc1c(-c2[nH]c3ccc(N4CCN(C(=O)CN5CCCC5)[C@H](C)C4)nc3c2C(C)C)cn2ncnc2c1C` [Example 941], for which the results for the pIC50 on human TLR8, on human TLR7 and at human TLR9 were 9.18, 9.18 and 5.14, respectively.
Turning to `CCN(C)CC(=O)N1CCN(c2ccc3[nH]c(-c4cn5ncnc5c(C)c4N)c(C(C)C)c3n2)C[C@H]1C` [Example 942], the negative-log IC50 (pIC50) at human TLR8 is 8.47; against human TLR7 it was 9.30; on human TLR9 it was 4.92.
With `Cc1c(-c2[nH]c3ccc(N4CCN(C(=O)CN(C)C(C)C)[C@H](C)C4)nc3c2C(C)C)cn2ncnc2c1C` [Example 943], the values for the negative logarithm of the IC50 (pIC50) at human TLR8, against human TLR7 and on human TLR9 were 8.96, 8.96 and 5.00, respectively.
With `Cc1c(-c2[nH]c3ccc(N4CCN(C(=O)CN(C)C(C)(C)C)[C@H](C)C4)nc3c2C(C)C)cn2ncnc2c1C` [Example 944], the pIC50 on human TLR8 is 8.31; on human TLR7 it was 8.51; at human TLR9, 4.77.
`Cc1c(-c2[nH]c3ccc(N4CCN(C(=O)CC(C)(C)N5CC6(COC6)C5)CC4)nc3c2C(C)C)cn2ncnc2c1C` [Example 945]: the pIC50 at human TLR8 is 9.03; against human TLR7 it was 8.32; on human TLR9, 5.11.
